pIC50: −log10 of the molar value. Several values for one entry are separate records, joined by “and”; a condition that tells them apart may be missing. Equal values may be shown once.
Columns and labels:
[1] = tested on: HCT116p53+/+ cell; experiment: MTT cell proliferation at single concentration; type: cell-based, human
Procedure: Cell proliferation was assessed by a MTT assay. Cancer cells were seeded in 96-well microtitre plates and, after overnight attachment, treated with GSTO1 inhibitors. After 72 h, MTT solution (3 mg ml^−1; 20 μl) was added to each well and cells were incubated for 3 h at 37 °C. After incubation, media from each well was removed and the dark blue formazan crystals formed by live cells were dissolved in DMSO (150 μl per well). The absorbance intensity was measured at 570 nm on a microplate reader (Molecular Devices, Sunnyvale, CA, USA). Cell viability after 24 h treatment was assessed using ApoTox-Glo triplex assay (Promega) according to the manufacturer's protocol. At least three independent dose–response experiments with each concentration tested in triplicate were performed for each cell line.

[2] = biological target: T1, GSTO1 (Homo sapiens, UniProt P78417); experiment: GSTO1 substrate assay (reduction of 4-NPG); conditions: for pIC50: read-out: GSTO substrate assay IC50, cluster screening tables
T1 sequence (P78417 1-241): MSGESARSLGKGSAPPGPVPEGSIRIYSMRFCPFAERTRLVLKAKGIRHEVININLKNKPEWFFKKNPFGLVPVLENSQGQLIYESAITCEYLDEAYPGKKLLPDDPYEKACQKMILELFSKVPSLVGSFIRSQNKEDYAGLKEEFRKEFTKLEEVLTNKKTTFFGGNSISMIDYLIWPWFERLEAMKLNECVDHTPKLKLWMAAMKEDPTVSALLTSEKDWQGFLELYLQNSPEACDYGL
Procedure: For activity screening, we adapted a GSTO1 substrate assay that relies on the quantification of the reduction of S-(4-nitrophenacyl)glutathione (4-NPG), a GSTO1-specific substrate[17], using recombinant human GSTO1 in a high-throughput screening format.
Enzyme activity was measured by monitoring the reduction of 4-NPG to 4-nitroacetophenone by GSTO1.

[3] = biological target: T1, GSTO1; experiment: In-gel fluorescence competitive CMFDA binding assay, recombinant GSTO1; conditions: inhibition of CMFDA binding
Source text: (§1) Primary screening of GSTO inhibitors was based on competitive inhibition of CMFDA binding to endogenous GSTO. Briefly, HCT116^p53+/+ cells (4 × 10^4 per well) were coated in a 12-well plate. […] Cells were then washed with PBS and lysed using Cell Lytic M buffer (Sigma). […] Gels were immediately scanned on a Typhoon variable mode imager (Amersham Bioscience). Quantification of fluorescent band intensity was done using Image Quant 5.2 software.

[4] = biological target: T2, endogenous GSTO1 (Homo sapiens, UniProt P78417); experiment: In-gel fluorescence competitive CMFDA binding assay, endogenous GSTO1 in HCT116; conditions: 10 µM; inhibition of CMFDA binding, HCT116
T2 sequence (P78417 1-241): T1 sequence (P78417 1-241)
Source text: as §1

Compound | % Inhibition of HCT116p53+/+ cell proliferation at 10 µM [1] | GSTO substrate assay % Inhibition at 10 µM [2] [%] | GSTO binding assay (% Inhibition at 10 µM) Recombinant [3] [%] | GSTO binding assay (% Inhibition at 10 µM) Endogenous [4] [%] | pIC50 [2]
CCOC(=O)c1c(NC(=O)CCl)sc2c1CCN(CC)C2 [C2-17] | 85.2% and 94.5% | 77.2 | 51.5 | 24.8 | 
O=C(CCl)N1CCN(Cc2cccc3ccccc23)CC1 [C5-9] | 68.4% and 79.3% | 83.7 | 62.3 | 52.8 | 6.42
CCOC(=O)c1cc(C(C)C)sc1NC(=O)CCl [C2-8] | 4.5% and 0.8% | 3.8 | 39.2 | 51.7 | 
O=C(CCl)Nc1cc2c(cc1Cl)OCCCO2 [C1-11] | 63.4% and 65.6% | 77.7 | 55.2 | 58.6 | 5.94
O=C(CCl)N(Cc1ccccc1)Cc1ccco1 [C4-15] | -6.8% and -5.5% | 98.2 | 65.8 | 34.0 | 
O=C(CCl)N1N=C(c2cccs2)CC1c1ccco1 (stereo not drawn) [C5-22] | 41.2% | 1.0 | 68.6 | 22.7 | 
O=C(CCl)NCC1COc2ccccc2O1 (stereo not drawn) [C3-9] | 24.9% | 80.7 | 30.7 | 53.9 | 
O=C(CCl)Nc1cc2c(cc1Cl)C(=O)c1ccccc1C2=O [C1-12] | 85% | 10.4 | 26.5 | 40.1 | 
O=C(CCl)Nc1ccc(Cl)cc1[N+](=O)[O-] [C1-2] | 7.4% | 100.9 | 54.1 | 66.2 | 5.91
O=C(CCl)N1CCN(Cc2ccc(Br)s2)CC1 [C5-10] | 71.5% and 90.4% | 68.3 | 59.8 | 55.8 | 6.39
CCOC(=O)c1c(NC(=O)CCl)sc(Cc2ccc3c(c2)OCO3)c1C [C2-13] | 38.1% | 25.9 | 48.1 | 41.3 | 
CN(C)C(CNC(=O)CCl)c1ccccc1 (stereo not drawn) [C3-12] | 5% | 83.2 | 22.0 | 9.7 | 
COc1cc(CCNC(=O)CCl)ccc1OC(F)F [C3-11] | 8.1% and 16.1% | 9.8 | 10.1 | 45.6 | 
N#CC(c1cccs1)N1CCN(C(=O)CCl)CC1 (stereo not drawn) [C5-11] | 19.6% | 5.7 | 57.7 | 62.9 | 
